Reference: US8048875B1, “Topical pharmaceutical composition comprising a cholinergic agent or a calcium channel blocker” (S.L.A. Pharma AG, priority 1997, dated 2011)
Like-named read-outs stand apart in the source and are kept apart here. Blank lines part the entries; values can stand above or below the molecule they belong to.

Columns and labels:
[1] = Dose ranging study of bethanechol cream in healthy volunteers, anal manometry; type: in vivo, human; details: higher concentrations produced no additional effect
Excerpt: Bethanechol cream at concentrations of 0.05%, 0.1%, 0.5% and 1% w/w bethanechol were made up in accordance with Example 1. The compositions were studied following initial experimentation in an open way to determine a clinically effective dose range. […] Maximal effect was produced by application of 0.1% bethanechol and higher concentrations of the cream produced no additional effect. At 0.1% w/w bethanechol, the mean resting pressure was reduced from about 110 cm to about 85 cm H2O (about 25% decrease). A typical ‘one inch’ application of this cream from the tube is equivalent to 400 mcg of bethanechol.

[2] = Study of Example 4 repeated using oral diltiazem
[3] = higher concentrations did not produce an additional effect
[4] = topical use; cited from earlier work
[5] = after 1 hour, patients with anal fissures; cited from earlier work

SMILES: CC(C[N+](C)(C)C)OC(N)=O (stereo not shown) [bethanechol]
concentration producing the maximal effect on resting anal pressure [1]: 0.1 % w/w

patients who noticed postural dizziness ([2]; 60 mg oral twice a day): two
SMILES: COc1ccc([C@@H]2Sc3ccccc3N(CCN(C)C)C(=O)[C@@H]2OC(C)=O)cc1 [diltiazem]
effect on mean anal resting pressure ([2]; 60 mg oral once a day): no notable effect
mean anal resting pressure reduced by ([2]; 60 mg oral twice a day, P=0.008): 17%
concentration producing the maximal effect on resting anal pressure [3]: about 2 % w/w

SMILES: O=[N+]([O-])OCC(CO[N+](=O)[O-])O[N+](=O)[O-] [glyceryl trinitrate]
effect on internal anal resting pressure [4]: reduces the internal anal resting pressure

SMILES: O=C(NC1CCN(CCc2c[nH]c3ccccc23)CC1)c1ccccc1 [indoramin]
reduction of maximum resting pressures in the anal canal [5]: 35.8%
